Source: patent US11833144B2, “Treating autoimmune disease” (Mayo Foundation for Medical Education and Research, priority 2020, dated 2023)

Key:
activated human B cells = experiment: Seahorse OCR / ECAR in activated human B cells; assay type: cell-based
Experimental: The bioenergetic activities of the OCR and ECAR were measured using a Seahorse XFe96 Extracellular Flux Analyzed following established protocols (Agilent). Briefly, B cells were seeded at 200,000 cells/well on Cell-Tak (Corning) coated XFe96 plate with fresh XF media (Seahorse XF RPMI medium containing 10 mM glucose, 2 mM L-glutamine, and 1 mM sodium pyruvate, PH 7.4; all reagents from Agilent). OCR was measured in the presence of Oligomycin (1.5 μM; Sigma-Aldrich), FCCP (1.5 μM; Sigma-Aldrich), and Rotenone (1 μM; Sigma-Aldrich)/Antimycin A (1 μM; Sigma-Aldrich) in Mito Stress assay. For ECAR measurement, B cells were seeded in XFe96 plate with fresh Seahorse XF RPMI medium with 2 mM L-glutamine (PH 7.4), and treated with glucose (10 mM; Agilent), Oligomycin (1.5 and 2-DG (50 mM; Sigma-Aldrich) orderly in Glycolysis Stress assay.

[1] = tested on: C57BL/6 mice receiving bm12 splenocytes; experiment: bm12 splenocyte transfer lupus (cGvHD) model fed SSI-4 chow; assay type: in vivo, mouse; settings: SSI-4 chow 30 mg/kg
Experimental: MRL/MpJ-Fas^lpr mice and B6 (C)-H2-Ab1^bm12/KhEgJ (bm12) mice were purchased from the Jackson Laboratory. Six weeks old female MRL/MpJ-Fas^lpr mice were treated with control chow or SSI-4 chow (60 mg/kg, on a two-week SSI-4 chow/control-chow alternating schedule) ad libitum for 15 weeks. Proteinuria was measured using Albustix strips (Siemens). Kidney histology was done using routine H&E staining. Thirty million splenocytes from 8 weeks old B6 (C)-H2-Ab1^bm12/KhEgJ (bm12) mice were transferred into C57BL/6 mice intraperitoneally. Mice were fed with control chow or SSI-4 chow (30 mg/kg, on an one-week SSI-4 chow/control-chow alternating schedule) ad libitum for 8 weeks.
For analysis of surface markers, cells were stained in PBS containing 1% (w/v) bovine serum albumin on ice for 30 minutes, with anti-B220 (RA3-6B2, Biolegend), anti-CD4 (GK1.5, Biolegend), anti-CD138 (281-2, Biolegend), anti-PD-1 (J43, ThermoFisher). CXCR5 was stained with biotinylated anti-CXCR5 (2G8) followed by staining with streptavidin-conjugated PE (both from BD Biosciences). Cell viability was assessed using the Fixable Dye Ghost 510 (Tonbo Bioscience) following the manufacturer's protocol. Flow cytometry was performed on the LSR II, LSR Fortessa (BD Biosciences) or Attune NxT (ThermoFisher) cytometers, and analysis was performed using FlowJo software (Tree Star).

SCD [2] = experiment: 13C-glucose tracing of de novo fatty acid biosynthesis in activated B cells (NEFA isotopomer analysis); assay type: cell-based, mouse; settings: 48 hours
Experimental: Briefly, 5×10^6 activated B cells were washed with PBS and re-cultured in glucose-free medium RPMI medium containing 10% dialyzed FBS and uniformly labeled [^13C]-glucose (2 g/L; Sigma-Aldrich) for 24 and 48 hours. Cell pellets were lysed in 1×PBS prior to lipid extraction. The extract was dried down and brought up in running buffer before underwent analysis on an Agilent 6550 iFunnel Q-TOF mass spectrometer/1290 Infinity liquid chromatographic system. A mixed standard containing 14 fatty acids was also run at the beginning and at the end of the sequence to generate retention time lock as well as unlabeled mass spectrum for each fatty acid. The mass spec was operating in negative electrospray ionization. Data was acquired in scan mode from 50-1700 m/z range. Data analysis was performed on Agilent Technologies software including Profinder, Mass Profiler Professional (MPP) and Vista Flux. Briefly, the features extracted from the data files were aligned using Profinder and converted to a compound exchange file (CEF) format to import in the MPP. The list was filtered for frequency and abundance to identify features that are present in all samples and with high abundance. A library was created using mass, molecular formula, and retention time of these features and used in conjunction with the Vista Flux software to determine the presence of isotopologue in individual feature. […]

[3] = tested on: mice immunized with NP-OVA; experiment: NP-OVA immunization of mice fed SSI-4 chow: humoral immune response; assay type: in vivo, mouse
SCD [4] = experiment: Fatty acid composition of fresh and activated B cells by LC-MS/MS; assay type: cell-based, mouse; settings: 100 nM SSI-4, 48 hours

SMILES	human B cell glycolysis (ECAR) (activated human B cells; exogenous OA, 72 h)	respiration (OCR) in activated human B cells (activated human B cells; exogenous fatty acid, 72 hours)	generation of CXCR5+PD-1+ follicular helper T cells [1]	generation of IgD-CD138+ plasma cells [1]	serum anti-dsDNA autoantibody level ([1]; one-week alternating schedule, 8 weeks, ELISA)	13C incorporation from glucose in OA, PO and vaccenic acid (SCD [2])	13C incorporation from glucose into SA, PA and myristic acid (SCD [2])	B220intCD138+ plasmablast generation ([3]; NP-OVA immunized, SSI-4 chow)	antigen specific NP+ GC B cells ([3]; NP-OVA immunized, SSI-4 chow)	splenic GC formation ([3]; NP-OVA immunized, SSI-4 chow)	OA level in sera of immunized mice ([3]; NP-OVA immunized, SSI-4 chow, GC-MS)	mTORC1 activity (p-S6 MFI) in splenic B cells in vivo ([3]; SSI-4 chow (30 mg/kg), NP-OVA immunization for one week)	percentage of Tfh cells after immunization ([3]; SSI-4 chow vs control chow)	production of anti-NP specific IgM antibodies ([3]; serum ELISA)	production of anti-NP specific total IgG and IgG1 antibodies ([3]; serum ELISA)	accumulation of MUFAs (PO, OA) in activated B cells (SCD [4])
CCCCCCCC/C=C\CCCCCCCC(=O)O [OA, oleic acid]	improved human B cell glycolysis	augmented respiration	–	–	–	–	–	–	–	–	–	–	–	–	–	–
CNC(=O)c1ccnc(NC(=O)N2CCC(Oc3ccccc3Cl)CC2)c1 [SSI-4, 2-{[4-(2-Chlorophenoxy)piperidine-1-carbonyl]amino}-N-methylpyridine-4-carboxamide]	–	–	reduced	reduced	reduced	all abolished	largely unaffected	not affected	reduced	significantly suppressed	substantially reduced	suppressed mTORC1 activity	comparable	but not IgM	significantly reduced	largely reversed it
